# Test: method code SF-AS, from DOI: 10.1080/10826079608005496
row,Compound,logP
1,COC(=O)CS(=O)c1ccc([N+](=O)[O-])cc1[N+](=O)[O-] (stereo not drawn),0.79
2,COC(=O)CS(=O)(=O)c1ccc(Cl)cc1[N+](=O)[O-],1.6
3,CC(C)OC(=O)CS(=O)(=O)c1ccc(Cl)cc1[N+](=O)[O-],2.24
4,CC(C)OC(=O)CS(=O)(=O)c1ccc([N+](=O)[O-])cc1Cl,2.12
5,CC(C)OC(=O)CS(=O)(=O)c1ccc([N+](=O)[O-])cc1,1.79
6,CC(C)OC(=O)CS(=O)(=O)c1ccccc1[N+](=O)[O-],1.6

# The next lines start with the values.
row,logP,Compound
1,2.66,CC(C)OC(=O)CSc1ccc([N+](=O)[O-])cc1
2,2.04,CC(C)OC(=O)CS(=O)c1ccc([N+](=O)[O-])cc1Cl (stereo not drawn)
3,2.72,CC(C)OC(=O)CSc1ccc([N+](=O)[O-])cc1[N+](=O)[O-]
4,3.29,CC(C)OC(=O)CSc1ccc([N+](=O)[O-])cc1Cl
5,2.66,COC(=O)CSc1ccc([N+](=O)[O-])cc1Cl
6,2.5,COC(=O)CSc1ccc(Cl)cc1[N+](=O)[O-]
7,3.14,CC(C)OC(=O)CSc1ccc(Cl)cc1[N+](=O)[O-]
